Experimental data taken from the CheMixHub viscosity set.
Several values for one entry are separate records, joined by “and”; a condition that tells them apart may be missing. Equal values may be shown once. ± gives the uncertainty stated by the source.

CCNCCO
viscosity [mPa·s]
Conditions | 293.15 K | 298.15 K | 303.15 K | 308.15 K | 313.15 K | 318.15 K | 323.15 K
101 kPa | – | – | 9.639 ± 0.16 | 7.83 ± 0.13 | 6.419 ± 0.11 | 5.358 ± 0.087 | 4.517 ± 0.074
101.33 kPa | 16.27 ± 0.35 | 12.75 ± 0.27 | 10.16 ± 0.22 | 8.223 ± 0.17 | 6.748 ± 0.14 | 5.608 ± 0.12 | 4.714 ± 0.1

c1ccc2c(c1)CCCC2
viscosity
Conditions | 293.15 K | 298.15 K | 303.15 K | 308.15 K | 313.15 K | 318.15 K | 323.15 K
100 kPa | 2.195 ± 0.047 mPa·s and 2.2 ± 0.09 mPa·s | 1.985 ± 0.042 mPa·s and 1.99 ± 0.08 mPa·s | 1.807 ± 0.038 mPa·s and 1.81 ± 0.07 mPa·s | 1.654 ± 0.035 mPa·s and 1.66 ± 0.07 mPa·s | 1.521 ± 0.032 mPa·s and 1.52 ± 0.06 mPa·s | 1.403 ± 0.03 mPa·s and 1.4 ± 0.06 mPa·s | 1.301 ± 0.028 mPa·s and 1.3 ± 0.05 mPa·s
101 kPa | – | 1.985 ± 0.026 mPa·s | – | – | – | – | –
101.33 kPa | – | 1.968 ± 0.012 mPa·s | 1.778 ± 0.011 mPa·s | 1.612 ± 0.01 mPa·s | 1.473 ± 0.009 mPa·s | – | –
102 kPa | 2.25 ± 0.03 mPa·s | – | 1.85 ± 0.02 mPa·s | – | – | – | –

[Cl-].[Cl-].[Cl-].[Cl-].[Ti+4]
101 kPa
Conditions | viscosity [mPa·s]
293.15 K | 0.827 ± 0.014
313.15 K | 0.702 ± 0.012

O=C(OCc1ccccc1)c1ccccc1
Conditions | viscosity
298.15 K, 101 kPa | 8.454 ± 0.23 mPa·s and 8.45 ± 0.23 mPa·s
313.15 K, 101.33 kPa | 5.04 ± 0.05 mPa·s

CCCCCC[N+]1(C)CCCC1.O=S(=O)([N-]S(=O)(=O)C(F)(F)F)C(F)(F)F
Conditions | viscosity [mPa·s]
293.15 K, 100 kPa | 136.2 ± 3.8
295.2 K, 101.3 kPa | 119.8 ± 17
298.15 K, 100 kPa | 102.8 ± 2.5
300.2 K, 101.3 kPa | 96.8 ± 11
303.15 K, 100 kPa | 79.59 ± 1.8
305.2 K, 101.3 kPa | 79.6 ± 6.4
308.15 K, 100 kPa | 63.07 ± 1.3
310.2 K, 101.3 kPa | 64.8 ± 3.3
313.15 K, 100 kPa | 51.01 ± 1.1
313.15 K, 101 kPa | 52.7 ± 5.4
315.2 K, 101.3 kPa | 54.2 ± 1.9
320.2 K, 101.3 kPa | 45.9 ± 2.2

CCCCNCCO
101.33 kPa
Conditions | viscosity [mPa·s]
293.15 K | 19.67 ± 0.42
298.15 K | 15.39 ± 0.33
303.15 K | 12.23 ± 0.26
308.15 K | 9.869 ± 0.21
313.15 K | 8.07 ± 0.17
318.15 K | 6.68 ± 0.14
323.15 K | 5.591 ± 0.12

C[N+](C)(C)CCO.O=C([O-])c1ccccn1
Conditions | viscosity [mPa·s]
300 K, 100 kPa | 558.5 ± 54

CCCCCCBr
101 kPa
Conditions | viscosity [mPa·s]
298.15 K | 0.9475 ± 0.02
303.45 K | 0.885 ± 0.019
313.35 K | 0.782 ± 0.017

CCCCCCCC(=O)OCC(COC(=O)CCCCCCC)OC(=O)CCCCCCC
101.33 kPa
Conditions | viscosity [mPa·s]
298 K | 19.98 ± 0.37
303 K | 16.58 ± 0.31
308 K | 13.79 ± 0.25
313 K | 11.57 ± 0.21

C[N+]1(CC2CO2)CCCC1=O.[Cl-] (stereo not given)
101 kPa
Conditions | viscosity
293.15 K | 1.677 ± 0.039 mPa·s and 1.623 ± 0.038 mPa·s
298.15 K | 1.537 ± 0.036 mPa·s and 1.489 ± 0.035 mPa·s
303.15 K | 1.415 ± 0.033 mPa·s and 1.373 ± 0.032 mPa·s
308.15 K | 1.309 ± 0.031 mPa·s and 1.27 ± 0.03 mPa·s
313.15 K | 1.215 ± 0.029 mPa·s and 1.18 ± 0.028 mPa·s

CCCC[n+]1ccn(C)c1.O=[N+]([O-])[O-]
101 kPa
Conditions | viscosity [mPa·s]
293.15 K | 212.1
298.15 K | 158.8 ± 77
303.15 K | 121.2 ± 45
308.15 K | 94.07 ± 25
313.15 K | 74.19 ± 12
318.15 K | 59.38 ± 4.4
323.15 K | 48.18 ± 4.7

COC(=O)c1ccccc1
viscosity
Conditions | 293.15 K | 298.15 K | 303.15 K | 308.15 K | 313.15 K | 318.15 K | 323.15 K
100 kPa | – | – | – | 1.517 ± 0.062 mPa·s | 1.373 ± 0.056 mPa·s | – | –
101 kPa | – | 1.823 ± 0.057 mPa·s and 1.825 ± 0.15 mPa·s | 1.656 ± 0.14 mPa·s and 1.583 ± 0.018 mPa·s | 1.501 ± 0.037 mPa·s and 1.504 ± 0.047 mPa·s | 1.359 ± 0.014 mPa·s and 1.371 ± 0.034 mPa·s | 1.282 ± 0.032 mPa·s and 1.27 ± 0.04 mPa·s | 1.222 ± 0.03 mPa·s
101.3 kPa | – | 1.918 ± 0.024 mPa·s | 1.778 ± 0.022 mPa·s | 1.663 ± 0.021 mPa·s | 1.402 ± 0.018 mPa·s | – | –
101.33 kPa | 1.879 ± 0.015 mPa·s and 2.036 ± 0.12 mPa·s | 1.836 ± 0.11 mPa·s and 1.825 ± 0.023 mPa·s and 1.81 ± 0.022 mPa·s | 1.523 ± 0.012 mPa·s and 1.656 ± 0.021 mPa·s and 1.638 ± 0.02 mPa·s | 1.521 ± 0.092 mPa·s and 1.491 ± 0.018 mPa·s | 1.238 ± 0.01 mPa·s and 1.398 ± 0.085 mPa·s and 1.365 ± 0.017 mPa·s | 1.253 ± 0.016 mPa·s | 1.016 ± 0.009 mPa·s

CC(=O)[O-].CCCC[N+](CC)(CC)CC
101 kPa
Conditions | viscosity [mPa·s]
298.2 K | 439 ± 23
313.2 K | 306.7 ± 14
